Literature values as cited in EP0687181B1, “USE OF THYMOSIN FOR TREATING HEPATITIS C IN NON-RESPONDERS TO INTERFERON TREATMENT” (ALPHA 1 BIOMEDICALS, INC., priority 1993, dated 2001).
Where no end group is shown, it is not given here.

What was measured:
HCV-related diseases = conditions: in vivo
influenza vaccine = conditions: drug recipients

Molecule	effect on progression of HCV-related diseases (HCV-related diseases)	toxicity (influenza vaccine)
Nc1nc2c(ncn2COCCO)c(=O)[nH]1 [acyclovir]	ineffective	–
Ac-SDAAVDTSSEITTKDLKEKKEVVEEAEN [Thymosin α-1]	–	No clinical or biochemical toxicity
